Columns and labels:
[1] = target: T1, Fms (Homo sapiens, UniProt P07333); test: Fms biochemical assay (AlphaScreen or 33P-ATP); details: under the test conditions employed; read-out: IC50 toward kinase Fms
T1 construct: purchased Upstate Biotech 14-551
From the text: Each sample was at 5% DMSO.

[2] = target: Btk (Homo sapiens, UniProt Q06187); test: Btk kinase activity assay; assay type: biochemical; details: under the test conditions employed; read-out: IC50 toward kinase Btk
[3] = target: T2, Kit (Homo sapiens, UniProt P10721); test: c-kit biochemical assay (AlphaScreen or 33P-ATP); details: under the test conditions employed; read-out: IC50 toward kinase Kit
T2 construct: P1332.N6 BI PTP KIT M552-K948-X COD; made in house; host or cells: E. coli BL21(DE3)RIL, co-expressed with PTP1B
Outline: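 Kinase activity read by AlphaScreen or 33P-ATP incorporation, with c-kit enzyme at 1 ng per sample. The enzyme was either commercial or a recombinant human kit construct made from a gene-synthesized coding sequence.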

[4] = target: Kdr (Homo sapiens, UniProt P35968); test: Kdr kinase activity assay; assay type: biochemical; details: under the test conditions employed; read-out: IC50 toward kinase Kdr
[5] = target: Flt1 (Homo sapiens, UniProt P17948); test: Flt1 kinase activity assay; assay type: biochemical; details: under the test conditions employed; read-out: IC50 toward kinase Flt1
[6] = target: FGFR (Homo sapiens, UniProt P11362); test: FGFR kinase activity assay; assay type: biochemical; details: under the test conditions employed; read-out: IC50 toward kinase FGFR
[7] = target: B-Raf V600E (Homo sapiens, UniProt P15056, V600E); test: B-Raf V600E kinase activity assay; assay type: biochemical; details: under the test conditions employed; read-out: IC50 toward kinase B-Raf V600E
[8] = target: B-Raf (Homo sapiens, UniProt P15056); test: B-Raf kinase activity assay; assay type: biochemical; details: under the test conditions employed; read-out: IC50 toward kinase B-Raf
[9] = target: Fak (Homo sapiens, UniProt Q05397); test: Fak kinase activity assay; assay type: biochemical; details: under the test conditions employed; read-out: IC50 toward kinase Fak
[10] = target: c-Raf-1 (Homo sapiens, UniProt P04049); test: c-Raf-1 kinase activity assay; assay type: biochemical; details: under the test conditions employed; read-out: IC50 toward kinase c-Raf-1
[11] = target: T3, TrkA (Homo sapiens, UniProt P04629); test: TrkA biochemical assay (AlphaScreen); details: under the test conditions employed; read-out: IC50 toward kinase TrkA
T3 construct: purchased Upstate Biotech 14-571
Experimental: Compounds tested were dissolved in DMSO (1 μL) and added to a white 384-well plate (Costar #3705). […] Each sample was at 5% DMSO. The plate was then incubated for 40 minutes at room temperature.

[12] = target: HGK (Homo sapiens, UniProt O95819); test: HGK (MAP4K4) biochemical assay (AlphaScreen); details: under the test conditions employed; read-out: IC50 toward kinase HGK
Outline: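 AlphaScreen kinase assay with 0.5 ng MAP4K4 per sample and 10 nM biotin-ERM substrate, reacted 40 min at room temperature. Stopped with EDTA buffer containing phospho-ERM antibody (1:1000) plus donor and protein A acceptor beads (1 μg/ml final); signal tracks substrate phosphorylation.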

Measured: IC50

Kdr, sequence (P35968 20-1356): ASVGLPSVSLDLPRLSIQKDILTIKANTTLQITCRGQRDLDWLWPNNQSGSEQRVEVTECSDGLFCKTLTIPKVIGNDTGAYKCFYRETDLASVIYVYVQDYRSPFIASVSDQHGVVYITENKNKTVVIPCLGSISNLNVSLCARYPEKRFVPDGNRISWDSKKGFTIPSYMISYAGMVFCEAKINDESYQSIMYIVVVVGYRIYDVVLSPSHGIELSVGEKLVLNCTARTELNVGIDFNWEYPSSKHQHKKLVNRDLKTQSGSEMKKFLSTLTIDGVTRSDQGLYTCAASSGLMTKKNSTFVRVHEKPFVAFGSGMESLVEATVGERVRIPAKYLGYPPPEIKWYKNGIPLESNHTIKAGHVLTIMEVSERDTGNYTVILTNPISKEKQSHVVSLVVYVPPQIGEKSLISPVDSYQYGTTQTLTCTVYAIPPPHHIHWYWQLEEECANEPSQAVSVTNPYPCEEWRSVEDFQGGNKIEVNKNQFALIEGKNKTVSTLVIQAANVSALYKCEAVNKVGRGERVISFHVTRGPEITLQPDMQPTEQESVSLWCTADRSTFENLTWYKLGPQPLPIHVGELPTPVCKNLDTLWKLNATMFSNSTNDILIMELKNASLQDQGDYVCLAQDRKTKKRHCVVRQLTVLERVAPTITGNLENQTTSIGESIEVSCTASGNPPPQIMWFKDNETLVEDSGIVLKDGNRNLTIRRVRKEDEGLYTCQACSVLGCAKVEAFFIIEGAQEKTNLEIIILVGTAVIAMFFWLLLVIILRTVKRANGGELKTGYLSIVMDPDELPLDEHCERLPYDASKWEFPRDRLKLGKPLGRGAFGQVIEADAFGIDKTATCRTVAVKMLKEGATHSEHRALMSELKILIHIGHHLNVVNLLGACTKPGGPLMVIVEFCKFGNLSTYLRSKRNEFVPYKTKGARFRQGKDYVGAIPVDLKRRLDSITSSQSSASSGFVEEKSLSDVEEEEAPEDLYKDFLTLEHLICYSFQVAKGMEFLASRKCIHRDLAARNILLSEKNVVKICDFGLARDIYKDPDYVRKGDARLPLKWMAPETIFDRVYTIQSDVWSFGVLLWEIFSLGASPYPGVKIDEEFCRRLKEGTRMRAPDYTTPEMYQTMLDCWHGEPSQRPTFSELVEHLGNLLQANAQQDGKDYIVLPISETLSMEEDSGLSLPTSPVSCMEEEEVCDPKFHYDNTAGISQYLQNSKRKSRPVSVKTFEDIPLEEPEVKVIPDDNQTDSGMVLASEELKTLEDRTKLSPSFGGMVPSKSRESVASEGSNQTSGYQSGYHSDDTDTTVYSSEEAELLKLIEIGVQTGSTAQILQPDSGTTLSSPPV
c-Raf-1, sequence (P04049 whole entry): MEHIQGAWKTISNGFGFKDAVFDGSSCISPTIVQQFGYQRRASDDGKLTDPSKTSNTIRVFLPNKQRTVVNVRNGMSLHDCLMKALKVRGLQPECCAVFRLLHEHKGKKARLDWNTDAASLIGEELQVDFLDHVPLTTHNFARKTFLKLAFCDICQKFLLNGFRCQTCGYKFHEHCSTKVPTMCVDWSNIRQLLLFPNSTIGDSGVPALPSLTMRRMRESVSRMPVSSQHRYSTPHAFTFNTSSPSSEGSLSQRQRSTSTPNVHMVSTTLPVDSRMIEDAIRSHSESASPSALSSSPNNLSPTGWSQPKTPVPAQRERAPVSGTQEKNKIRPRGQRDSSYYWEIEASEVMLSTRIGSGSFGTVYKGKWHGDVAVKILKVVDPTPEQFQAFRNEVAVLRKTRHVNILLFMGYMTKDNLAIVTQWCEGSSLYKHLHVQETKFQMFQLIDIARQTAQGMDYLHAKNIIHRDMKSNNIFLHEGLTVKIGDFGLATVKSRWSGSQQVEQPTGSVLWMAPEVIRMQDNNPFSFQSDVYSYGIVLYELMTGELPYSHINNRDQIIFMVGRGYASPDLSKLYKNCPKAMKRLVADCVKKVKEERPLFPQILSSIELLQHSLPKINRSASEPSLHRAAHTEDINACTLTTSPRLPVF
B-Raf, sequence (P15056 whole entry): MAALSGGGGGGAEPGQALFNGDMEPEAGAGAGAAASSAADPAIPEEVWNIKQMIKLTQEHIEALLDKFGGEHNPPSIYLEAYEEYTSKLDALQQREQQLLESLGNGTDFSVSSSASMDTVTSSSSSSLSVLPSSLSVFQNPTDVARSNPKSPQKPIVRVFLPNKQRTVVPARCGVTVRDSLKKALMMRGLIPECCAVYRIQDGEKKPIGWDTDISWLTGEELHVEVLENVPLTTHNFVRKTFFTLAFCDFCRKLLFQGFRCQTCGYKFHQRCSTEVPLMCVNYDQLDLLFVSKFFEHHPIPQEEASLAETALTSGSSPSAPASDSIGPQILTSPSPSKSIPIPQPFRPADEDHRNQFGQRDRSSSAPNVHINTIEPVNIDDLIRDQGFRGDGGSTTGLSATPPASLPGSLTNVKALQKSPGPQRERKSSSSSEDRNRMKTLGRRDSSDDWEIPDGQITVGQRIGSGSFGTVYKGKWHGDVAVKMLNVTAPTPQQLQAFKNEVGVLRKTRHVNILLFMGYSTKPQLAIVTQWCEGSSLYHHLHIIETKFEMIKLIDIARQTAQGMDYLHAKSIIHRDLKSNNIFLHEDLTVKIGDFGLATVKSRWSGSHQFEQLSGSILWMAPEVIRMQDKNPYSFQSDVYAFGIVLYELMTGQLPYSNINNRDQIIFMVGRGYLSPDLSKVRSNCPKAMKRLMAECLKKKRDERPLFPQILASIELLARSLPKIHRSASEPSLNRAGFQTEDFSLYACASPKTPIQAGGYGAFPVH
FGFR, sequence (P11362 22-822): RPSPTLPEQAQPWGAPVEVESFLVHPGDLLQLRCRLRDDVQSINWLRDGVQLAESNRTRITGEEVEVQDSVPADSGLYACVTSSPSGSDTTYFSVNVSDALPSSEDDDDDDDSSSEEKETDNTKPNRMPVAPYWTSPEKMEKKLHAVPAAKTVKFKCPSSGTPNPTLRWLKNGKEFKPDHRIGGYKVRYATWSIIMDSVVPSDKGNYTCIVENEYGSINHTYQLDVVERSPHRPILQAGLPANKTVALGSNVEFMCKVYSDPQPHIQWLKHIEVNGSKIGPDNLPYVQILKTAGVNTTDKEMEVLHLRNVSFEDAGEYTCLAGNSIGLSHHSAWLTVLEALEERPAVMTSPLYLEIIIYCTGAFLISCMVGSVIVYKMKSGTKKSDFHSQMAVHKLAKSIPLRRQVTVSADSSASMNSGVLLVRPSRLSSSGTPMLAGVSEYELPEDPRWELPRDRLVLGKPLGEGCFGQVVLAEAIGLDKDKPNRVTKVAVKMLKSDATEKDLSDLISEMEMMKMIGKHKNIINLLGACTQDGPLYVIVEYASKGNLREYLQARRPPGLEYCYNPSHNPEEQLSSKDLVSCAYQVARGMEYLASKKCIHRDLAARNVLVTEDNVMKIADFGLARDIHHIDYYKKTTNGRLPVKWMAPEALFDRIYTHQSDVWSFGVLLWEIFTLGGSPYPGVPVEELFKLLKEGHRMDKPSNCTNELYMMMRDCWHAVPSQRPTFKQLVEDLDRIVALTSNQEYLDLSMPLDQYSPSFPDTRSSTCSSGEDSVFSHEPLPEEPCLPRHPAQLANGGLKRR
T1 sequence (P07333 20-972): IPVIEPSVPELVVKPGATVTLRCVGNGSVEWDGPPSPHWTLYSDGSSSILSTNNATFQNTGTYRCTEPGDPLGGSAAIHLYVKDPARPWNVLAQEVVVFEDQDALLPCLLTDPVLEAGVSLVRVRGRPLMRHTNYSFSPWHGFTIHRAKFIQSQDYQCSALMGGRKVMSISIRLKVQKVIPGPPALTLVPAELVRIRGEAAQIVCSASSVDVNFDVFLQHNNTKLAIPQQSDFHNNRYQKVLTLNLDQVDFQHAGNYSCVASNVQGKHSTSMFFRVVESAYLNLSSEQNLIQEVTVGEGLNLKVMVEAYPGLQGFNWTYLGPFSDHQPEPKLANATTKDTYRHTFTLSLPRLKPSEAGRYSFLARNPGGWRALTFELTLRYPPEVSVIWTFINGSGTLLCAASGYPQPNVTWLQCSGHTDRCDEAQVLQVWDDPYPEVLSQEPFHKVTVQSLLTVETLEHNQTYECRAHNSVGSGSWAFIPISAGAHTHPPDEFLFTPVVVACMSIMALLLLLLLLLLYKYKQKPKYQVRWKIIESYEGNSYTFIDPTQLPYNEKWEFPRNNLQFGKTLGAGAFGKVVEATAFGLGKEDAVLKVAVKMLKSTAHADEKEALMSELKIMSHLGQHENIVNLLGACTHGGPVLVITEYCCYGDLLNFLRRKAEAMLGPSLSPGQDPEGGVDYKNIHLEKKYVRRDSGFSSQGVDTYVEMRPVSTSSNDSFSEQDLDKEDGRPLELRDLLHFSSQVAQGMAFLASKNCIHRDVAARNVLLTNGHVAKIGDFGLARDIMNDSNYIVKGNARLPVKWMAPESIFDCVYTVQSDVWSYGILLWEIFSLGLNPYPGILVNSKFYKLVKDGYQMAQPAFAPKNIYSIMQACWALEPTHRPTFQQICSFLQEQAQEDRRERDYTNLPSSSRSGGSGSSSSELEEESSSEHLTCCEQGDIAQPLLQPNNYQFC
B-Raf V600E, sequence (P15056 whole entry V600E): as the sequence (P15056 whole entry) above, with V600E counted along it
T2 sequence (P10721 552-948): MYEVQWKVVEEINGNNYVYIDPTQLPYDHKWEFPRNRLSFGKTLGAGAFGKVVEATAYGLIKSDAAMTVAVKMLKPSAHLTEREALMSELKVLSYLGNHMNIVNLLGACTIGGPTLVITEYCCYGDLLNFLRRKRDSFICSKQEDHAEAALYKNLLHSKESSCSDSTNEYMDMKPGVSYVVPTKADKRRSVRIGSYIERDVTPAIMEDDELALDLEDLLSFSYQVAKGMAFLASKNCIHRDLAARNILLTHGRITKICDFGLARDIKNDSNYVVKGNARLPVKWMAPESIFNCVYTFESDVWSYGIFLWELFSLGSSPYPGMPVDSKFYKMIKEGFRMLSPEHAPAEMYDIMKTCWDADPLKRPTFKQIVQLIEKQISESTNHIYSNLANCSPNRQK

Cn1cc(-c2cnc3[nH]cc(Cc4cc(F)c(O)cc4F)c3c2)cn1 [P-2161, 2,5-difluoro-4-[5-(1-methyl-1H-pyrazol-4-yl)-1H-pyrrolo[2,3-b]pyridin-3-ylmethyl]-phenol]
≤ 10 µM: [1] | [2] | [3] | [4] | [5]

Cc1nc(C)c(COc2ccc(F)c(C(=O)c3c[nH]c4ncc(Cl)cc34)c2F)s1 [P-2162, (5-Chloro-1H-pyrrolo[2,3-b]pyridin-3-yl)-[3-(2,4-dimethyl-thiazol-5-ylmethoxy)-2,6-difluoro-phenyl]-methanone]
≤ 10 µM: [1] | [2] | [3] | [4]

O=C(c1c(F)ccc(OCc2ccccc2)c1F)c1c[nH]c2ncc(-c3cccnc3)cc12 [P-1467, (3-Benzyloxy-2,6-difluorophenyl)-(5-pyridin-3-yl-1H-pyrrolo[2,3-b]pyridin-3-yl)-methanone]
≤ 10 µM: [1] | [3] | [6] | [7] | [8] | [5]

COc1cc(OCc2ccc(Cl)cc2)ccc1Cc1c[nH]c2ncccc12 [P-1450, 3-[4-(4-chloro-benzyloxy)-2-methoxy-benzyl]-1H-pyrrolo[2,3-b]pyridine]
≤ 10 µM: [1] | [3] | [7] | [9]

O=C(c1c(F)ccc(OCc2ccc(C(F)(F)F)nc2)c1F)c1c[nH]c2ncc(Cl)cc12 [P-2163, (5-Chloro-1H-pyrrolo[2,3-b]pyridin-3-yl)-[2,6-difluoro-3-(6-trifluoromethyl-pyridin-3-ylmethoxy)-phenyl]-methanone]
≤ 10 µM: [1] | [2] | [3] | [4]

COc1cc(Cc2c[nH]c3ncccc23)ccc1OCc1ccc(Cl)cc1F [P-1544, 3-[4-(4-Chloro-2-fluoro-benzyloxy)-3-methoxy-benzyl]-1H-pyrrolo[2,3-b]pyridine]
≤ 10 µM: [1] | [3] | [7] | [8] | [5]

COCCOc1ccc(F)c(C(=O)c2c[nH]c3ncc(OC)cc23)c1F [P-1584, [2,6-Difluoro-3-(2-methoxy-ethoxy)-phenyl]-(5-methoxy-1H-pyrrolo[2,3-b]pyridin-3-yl)-methanone]
≤ 10 µM: [6] | [7] | [8] | [5]

COc1cnc2[nH]cc(C(=O)c3c(F)ccc(OCc4ccccc4)c3F)c2c1 [P-1597, (3-Benzyloxy-2,6-difluoro-phenyl)-(5-methoxy-1H-pyrrolo[2,3-b]pyridin-3-yl)-methanone]
≤ 10 µM: [1] | [6] | [7] | [8] | [5]

CCOc1c(OCc2ccc(N(CC)CC)nc2)cccc1C(=O)c1c[nH]c2ncccc12 [P-2143, [3-(6-Diethylamino-pyridin-3-ylmethoxy)-2-ethoxy-phenyl]-(1H-pyrrolo[2,3-b]pyridin-3-yl)-methanone]
≤ 10 µM: [10] | [1] | [2]

Cn1ccnc1COc1ccc(F)c(C(=O)c2c[nH]c3ncc(Cl)cc23)c1F [P-2165, (5-Chloro-1H-pyrrolo[2,3-b]pyridin-3-yl)-[2,6-difluoro-3-(1-methyl-1H-imidazol-2-ylmethoxy)-phenyl]-methanone]
≤ 10 µM: [1] | [3] | [4] | [7] | [8] | [5]

N#Cc1cnc2[nH]cc(Cc3cc(F)c(OCc4nc5ccccc5[nH]4)cc3F)c2c1 [P-2185, 3-[4-(1H-Benzoimidazol-2-ylmethoxy)-2,5-difluoro-benzyl]-1H-pyrrolo[2,3-b]pyridine-5-carbonitrile]
not listed: [2] | [6] | [9]
≤ 10 µM: all other assays above

CCOc1c(OCc2ccc(N3CCCC3)nc2)cccc1C(=O)c1c[nH]c2ncccc12 [P-2144, [2-Ethoxy-3-(6-pyrrolidin-1-yl-pyridin-3-ylmethoxy)-phenyl]-(1H-pyrrolo[2,3-b]pyridin-3-yl)-methanone]
≤ 10 µM: [1] | [2] | [8]

COCCOc1ccc(F)c(C(=O)c2c[nH]c3ncccc23)c1Cl [P-2160, [2-Chloro-6-fluoro-3-(2-methoxy-ethoxy)-phenyl]-(1H-pyrrolo[2,3-b]pyridin-3-yl)-methanone]
≤ 10 µM: [1] | [3] | [6] | [4]

COCCOc1ccc(F)c(Cc2c[nH]c3ncc(Br)cc23)c1F [P-1454, 5-Bromo-3-[2,6-difluoro-3-(2-methoxy-ethoxy)-benzyl]1H-pyrrolo[2,3-b]pyridine]
≤ 10 µM: [10] | [1] | [3] | [6] | [7] | [8]

COc1ccc(COc2ccc(Cc3c[nH]c4ncccc34)cc2OC)cc1 [P-1569, 3-[3-Methoxy-4-(4-methoxy-benzyloxy)-benzyl]-1H-pyrrolo[2,3-b]pyridine]
≤ 10 µM: [1] | [3] | [7] | [8] | [5]

COCCOCCOc1cc(Cl)c(Cc2c[nH]c3ncc(Cl)cc23)cc1F [P-2155, 5-chloro-3-2-chloro-5-fluoro-4-[2-(2-methoxy-ethoxy)-ethoxy]-benzyl-1H-pyrrolo[2,3-b]pyridine]
≤ 10 µM: [10] | [1] | [6] | [4]

COCCOc1ccc(F)c(C(=O)c2c[nH]c3ncc(Cl)cc23)c1Cl [P-2159, [2-Chloro-6-fluoro-3-(2-methoxy-ethoxy)-phenyl]-(5-chloro-1H-pyrrolo[2,3-b]pyridin-3-yl)-methanone]
≤ 10 µM: [1] | [3] | [6] | [4]

Fc1cc(OCc2nc3ccccc3[nH]2)c(F)cc1Cc1c[nH]c2ncc(Br)cc12 [P-2107, 2-[4-(5-Bromo-1H-pyrrolo[2,3-b]pyridin-3-ylmethyl)-2,5-difluoro-phenoxymethyl]-1H-benzoimidazole]
≤ 10 µM: [10] | [11] | [1] | [12] | [3] | [4] | [5]

Clc1ccc(COc2ccc(Cc3c[nH]c4ncccc34)cc2Cl)cc1 [P-1449, 3-[3-chloro-4-(4-chloro-benzyloxy)-benzyl]-1H-pyrrolo[2,3-b]pyridine]
≤ 10 µM: [1] | [3] | [7] | [9]

COc1cc(Cc2c[nH]c3ncc(Br)cc23)c(F)cc1OCc1nc2ccccc2[nH]1 [P-2181, 2-[4-(5-Bromo-1H-pyrrolo[2,3-b]pyridin-3-ylmethyl)-5-fluoro-2-methoxy-phenoxymethyl]-1H-benzoimidazole]
≤ 10 µM: [11] | [1] | [12] | [9]

COc1cc(Cc2c[nH]c3ncc(Cl)cc23)ccc1OCc1ccc(Cl)cc1 [P-1532, 5-Chloro-3-[4-(4-chloro-benzyloxy)-3-methoxy-benzyl]-1H-pyrrolo[2,3-b]pyridine]
≤ 10 µM: [1] | [3] | [7] | [8] | [5]

Cc1nc(COc2ccc(F)c(C(=O)c3c[nH]c4ncc(Cl)cc34)c2F)c(C)o1 [P-2164, (5-Chloro-1H-pyrrolo[2,3-b]pyridin-3-yl)-[3-(2,5-dimethyl-oxazol-4-ylmethoxy)-2,6-difluoro-phenyl]-methanone]
≤ 10 µM: [1] | [2] | [3] | [4] | [7] | [8] | [5]

Cc1nc(C)c(COc2cccc(C(=O)c3c[nH]c4ncc(Cl)cc34)c2OCC2CC2)s1 [P-2140, (5-Chloro-1H-pyrrolo[2,3-b]pyridin-3-yl)-[2-cyclopropylmethoxy-3-(2,4-dimethyl-thiazol-5-ylmethoxy)-phenyl]-methanone]
≤ 10 µM: [1] | [2] | [3]

From patent publication US7872018B2, “Compounds and methods for kinase modulation, and indications therefor” (Plexxikon, Inc., priority 2006, dated 2011)
